Data as given in ChEMBL document CHEMBL2424579, “Quinazolin-4-one derivatives as selective histone deacetylase-6 inhibitors for the treatment of Alzheimer's disease” (J Med Chem, 2013).
Calls of active or inactive are those of the source. The calls are words filed in the database; no cut-off is given here.

What was measured:
[1] = biological target: Histone deacetylase 11 (Homo sapiens) (UniProt Q96DB2); experiment: Inhibition of human recombinant HDAC11 expressed in baculovirus/sf9 cells using RHKKAc as substrate at 1 uM
[2] = biological target: Polyamine deacetylase HDAC10 (Homo sapiens) (UniProt Q969S8); experiment: Inhibition of human recombinant HDAC10 expressed in baculovirus/sf9 cells using RHKKAc as substrate at 1 uM
[3] = biological target: Protein deacetylase HDAC6 (Homo sapiens) (UniProt Q9UBN7); experiment: Inhibition of human recombinant HDAC6 expressed in baculovirus/sf9 cells using RHKKAc as substrate at 1 uM
[4] = biological target: T1, Histone deacetylase 2 (Homo sapiens, UniProt Q92769); experiment: Inhibition of human recombinant HDAC2 expressed in baculovirus/sf9 cells using RHKKAc as substrate at 1 uM
[5] = biological target: Histone deacetylase 8 (Homo sapiens) (UniProt Q9BY41); experiment: Inhibition of human recombinant HDAC8 expressed in baculovirus/sf9 cells using RHKAcKAc as substrate at 1 uM
[6] = biological target: T2, Histone deacetylase 1 (Homo sapiens, UniProt Q13547); experiment: Inhibition of human recombinant HDAC1 expressed in baculovirus/sf9 cells using RHKKAc as substrate at 1 uM
[7] = biological target: Amyloid-beta precursor protein (Homo sapiens, UniProt P05067); experiment: Inhibition of amyloid beta aggregation (unknown origin) after 4 hrs by thioflavin S assay in absence of Zn2+
[8] = system: PC-12; experiment: Inhibition of HDAC6 in rat PC12 cells assessed as acetylation of histone H3 at 10 uM after 48 hrs by Western blotting analysis; assay type: cell-based
[9] = system: PC-12; experiment: Inhibition of HDAC6 in rat PC12 cells assessed as induction of alpha-tubulin acetylation at 10 uM after 48 hrs by Western blotting analysis; assay type: cell-based
[10] = system: PC-12; experiment: Induction iof GAP-43 protein expression in rat PC12 cells at 0.1 uM after 48 hrs by Western blotting analysis; assay type: functional, cell-based
[11] = system: PC-12; experiment: Induction iof GAP-43 protein expression in rat PC12 cells after 48 hrs by Western blotting analysis; assay type: functional, cell-based
[12] = system: SH-SY5Y; experiment: Increase of synaptic activity in human SH-SY5Y cells after 5 days by fluorescence assay; assay type: functional, cell-based; settings: 120 h
[13] = system: SH-SY5Y; experiment: Induction of neurite outgrowth in human SH-SY5Y cells after 5 days; assay type: functional, cell-based; settings: 120 h
[14] = system: PC-12; experiment: Increase of synaptic activity in rat PC12 cells after 5 days by fluorescence assay; assay type: functional, cell-based; settings: PC-12, 120 h
[15] = system: SH-SY5Y; experiment: Induction of neurite outgrowth in human SH-SY5Y cells at 10 uM after 5 days; assay type: functional, cell-based
[16] = system: PC-12; experiment: Induction of neurite outgrowth in rat PC12 cells after 5 days; assay type: functional, cell-based; settings: PC-12, 120 h
[17] = system: PC-12; experiment: Induction of neurite outgrowth in rat PC12 cells at 10 uM after 5 days; assay type: functional, cell-based
[18] = biological target: T3, Histone deacetylase 11 (Homo sapiens, UniProt Q96DB2); experiment: Inhibition of human recombinant HDAC11 expressed in baculovirus/sf9 cells using RHKKAc as substrate
T3 sequence (Q96DB2 whole entry): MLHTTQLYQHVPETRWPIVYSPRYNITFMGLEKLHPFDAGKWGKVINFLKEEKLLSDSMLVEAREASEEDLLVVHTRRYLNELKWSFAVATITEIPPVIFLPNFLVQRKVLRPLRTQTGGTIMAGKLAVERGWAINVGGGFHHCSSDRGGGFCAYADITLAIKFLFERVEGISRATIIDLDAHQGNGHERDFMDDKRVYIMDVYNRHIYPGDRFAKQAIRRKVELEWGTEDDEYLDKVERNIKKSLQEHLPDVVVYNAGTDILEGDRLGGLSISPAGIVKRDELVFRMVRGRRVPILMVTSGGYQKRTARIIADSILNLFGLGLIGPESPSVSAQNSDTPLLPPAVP

[19] = biological target: T4, Protein deacetylase HDAC6 (Homo sapiens, UniProt Q9UBN7); experiment: Inhibition of human recombinant HDAC6 expressed in baculovirus/sf9 cells using RHKKAc as substrate
T4 sequence (Q9UBN7 whole entry): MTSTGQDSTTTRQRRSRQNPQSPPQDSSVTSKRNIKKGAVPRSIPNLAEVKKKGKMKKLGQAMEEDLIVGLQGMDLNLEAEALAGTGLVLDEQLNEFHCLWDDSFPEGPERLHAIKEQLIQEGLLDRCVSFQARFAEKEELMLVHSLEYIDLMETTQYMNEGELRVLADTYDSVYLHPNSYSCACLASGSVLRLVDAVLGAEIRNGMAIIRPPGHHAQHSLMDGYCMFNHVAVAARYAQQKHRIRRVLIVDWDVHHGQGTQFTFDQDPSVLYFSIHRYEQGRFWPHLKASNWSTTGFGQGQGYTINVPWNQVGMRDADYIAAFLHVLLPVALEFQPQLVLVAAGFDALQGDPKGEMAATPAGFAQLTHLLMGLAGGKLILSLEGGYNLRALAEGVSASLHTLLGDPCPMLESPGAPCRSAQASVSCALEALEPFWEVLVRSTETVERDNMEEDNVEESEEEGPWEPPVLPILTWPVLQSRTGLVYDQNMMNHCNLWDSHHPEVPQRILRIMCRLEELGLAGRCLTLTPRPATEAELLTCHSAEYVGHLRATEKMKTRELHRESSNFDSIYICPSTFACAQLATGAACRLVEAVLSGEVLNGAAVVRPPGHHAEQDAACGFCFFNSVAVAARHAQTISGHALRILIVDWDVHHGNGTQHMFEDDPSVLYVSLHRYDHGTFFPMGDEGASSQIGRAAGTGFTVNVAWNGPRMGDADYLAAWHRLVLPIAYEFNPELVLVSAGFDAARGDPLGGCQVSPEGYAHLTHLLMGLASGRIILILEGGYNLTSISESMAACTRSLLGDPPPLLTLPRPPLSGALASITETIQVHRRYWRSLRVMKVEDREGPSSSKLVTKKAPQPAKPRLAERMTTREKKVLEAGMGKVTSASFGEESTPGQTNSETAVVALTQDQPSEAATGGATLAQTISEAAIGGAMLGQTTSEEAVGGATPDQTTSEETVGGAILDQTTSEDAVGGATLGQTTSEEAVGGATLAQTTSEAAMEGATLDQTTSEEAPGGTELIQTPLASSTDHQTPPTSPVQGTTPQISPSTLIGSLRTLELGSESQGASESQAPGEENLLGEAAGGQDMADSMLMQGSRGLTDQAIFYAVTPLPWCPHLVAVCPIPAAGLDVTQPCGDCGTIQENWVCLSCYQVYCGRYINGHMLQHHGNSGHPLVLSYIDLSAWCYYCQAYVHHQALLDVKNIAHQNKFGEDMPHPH

[20] = biological target: T5, Histone deacetylase 8 (Homo sapiens, UniProt Q9BY41); experiment: Inhibition of human recombinant HDAC8 expressed in baculovirus/sf9 cells using RHKAcKAc as substrate
T5 sequence (Q9BY41 whole entry): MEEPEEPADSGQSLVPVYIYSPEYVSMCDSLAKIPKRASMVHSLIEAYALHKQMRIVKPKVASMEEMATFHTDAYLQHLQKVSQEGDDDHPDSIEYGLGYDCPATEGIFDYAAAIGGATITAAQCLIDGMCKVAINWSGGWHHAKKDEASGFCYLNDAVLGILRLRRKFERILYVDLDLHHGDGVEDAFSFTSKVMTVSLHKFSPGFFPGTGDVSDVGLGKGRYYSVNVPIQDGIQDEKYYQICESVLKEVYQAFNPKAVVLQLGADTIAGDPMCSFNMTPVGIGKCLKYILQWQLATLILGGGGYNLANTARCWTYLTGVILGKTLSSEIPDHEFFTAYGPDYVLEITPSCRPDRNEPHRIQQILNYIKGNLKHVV

[21] = biological target: T2, Histone deacetylase 1; experiment: Inhibition of human recombinant HDAC1 expressed in baculovirus/sf9 cells using RHKKAc as substrate
[22] = biological target: T1, Histone deacetylase 2; experiment: Inhibition of human recombinant HDAC2 expressed in baculovirus/sf9 cells using RHKKAc as substrate
[23] = biological target: Cytochrome P450 2C19 (Homo sapiens, UniProt P33261); experiment: Inhibition of CYP2C19 (unknown origin) using 3-cyano-7-ethoxycoumarin as substrate; assay type: ADME
[24] = system: Vero; experiment: Cytotoxicity against african green monkey Vero cells at 25 uM; assay type: cell-based; settings: chlorocebus sabaeus
[25] = Cytotoxicity against human SH-SY5Y cells at 25 uM; assay type: cell-based
[26] = system: PC-12; experiment: Cytotoxicity against rat PC12 cells at 25 uM; assay type: cell-based; settings: pc-12, 25 µM
[27] = biological target: Cytochrome P450 1A2 (Homo sapiens, UniProt P05177); experiment: Inhibition of CYP1A2 (unknown origin) using 3-cyano-7-ethoxycoumarin as substrate; assay type: ADME
[28] = biological target: Cytochrome P450 2D6 (Homo sapiens, UniProt P10635); experiment: Inhibition of CYP2D6 (unknown origin) using 3-cyano-7-ethoxycoumarin as substrate; assay type: ADME
[29] = biological target: Cytochrome P450 2C9 (Homo sapiens, UniProt P11712); experiment: Inhibition of CYP2C9 (unknown origin) using Vivid OOMR as substrate; assay type: ADME
[30] = biological target: Cytochrome P450 3A4 (Homo sapiens, UniProt P08684); experiment: Inhibition of CYP3A4 (unknown origin) using Vivid BOMR as substrate; assay type: ADME
[31] = biological target: Poly [ADP-ribose] polymerase 1 (Homo sapiens) (UniProt P09874); experiment: Inhibition of PARP1 (unknown origin) up to 25 uM
[32] = system: Mus musculus; experiment: Antialzheimer activity in wild type learning-impaired Balb/c mouse model with hippocampal lesions at 10 mg/kg, ip administered for 30 days by rotarod test relative to vehicle-treated control; settings: Hippocampus, TDE = time-dependent effect
[33] = system: Mus musculus; experiment: Antialzheimer activity in wild type learning-impaired Balb/c mouse model with hippocampal lesions assessed as increase in acetylated alpha-tubulin level in hippocampus region at 10 mg/kg, ip administered for 30 days by rotarod test
[34] = system: PC-12; experiment: Inhibition of HDAC6 in rat PC12 cells assessed as induction of alpha-tubulin acetylation after 48 hrs by Western blotting analysis; assay type: cell-based

T1 sequence (Q92769 whole entry): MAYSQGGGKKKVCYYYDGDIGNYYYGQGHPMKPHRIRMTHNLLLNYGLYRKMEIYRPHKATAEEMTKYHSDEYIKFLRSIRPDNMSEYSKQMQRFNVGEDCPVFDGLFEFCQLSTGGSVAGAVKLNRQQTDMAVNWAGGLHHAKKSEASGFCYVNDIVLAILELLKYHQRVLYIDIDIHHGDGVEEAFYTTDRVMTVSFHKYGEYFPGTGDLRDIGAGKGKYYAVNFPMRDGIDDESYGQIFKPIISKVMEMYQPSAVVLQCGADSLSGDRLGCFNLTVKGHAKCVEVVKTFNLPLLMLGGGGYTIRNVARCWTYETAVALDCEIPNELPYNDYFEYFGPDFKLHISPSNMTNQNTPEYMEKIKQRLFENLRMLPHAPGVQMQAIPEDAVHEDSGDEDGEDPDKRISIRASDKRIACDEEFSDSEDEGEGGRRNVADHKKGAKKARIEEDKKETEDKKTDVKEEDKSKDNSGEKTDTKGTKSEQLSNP
Chain of Cytochrome P450 3A4 (P08684 whole entry): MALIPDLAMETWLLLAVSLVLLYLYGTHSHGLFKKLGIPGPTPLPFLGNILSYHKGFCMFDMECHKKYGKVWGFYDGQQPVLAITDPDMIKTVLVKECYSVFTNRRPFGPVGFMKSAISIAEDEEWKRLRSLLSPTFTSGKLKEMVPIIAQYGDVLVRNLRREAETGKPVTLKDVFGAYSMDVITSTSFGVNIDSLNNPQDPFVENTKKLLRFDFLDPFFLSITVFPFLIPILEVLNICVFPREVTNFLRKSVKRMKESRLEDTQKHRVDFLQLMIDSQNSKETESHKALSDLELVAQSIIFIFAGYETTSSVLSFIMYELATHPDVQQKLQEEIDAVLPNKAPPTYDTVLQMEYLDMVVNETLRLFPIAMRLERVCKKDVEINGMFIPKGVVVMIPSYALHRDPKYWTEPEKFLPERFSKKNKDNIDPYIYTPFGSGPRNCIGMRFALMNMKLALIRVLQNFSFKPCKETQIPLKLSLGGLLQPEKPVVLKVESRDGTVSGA
Chain of Cytochrome P450 2C9 (P11712 whole entry): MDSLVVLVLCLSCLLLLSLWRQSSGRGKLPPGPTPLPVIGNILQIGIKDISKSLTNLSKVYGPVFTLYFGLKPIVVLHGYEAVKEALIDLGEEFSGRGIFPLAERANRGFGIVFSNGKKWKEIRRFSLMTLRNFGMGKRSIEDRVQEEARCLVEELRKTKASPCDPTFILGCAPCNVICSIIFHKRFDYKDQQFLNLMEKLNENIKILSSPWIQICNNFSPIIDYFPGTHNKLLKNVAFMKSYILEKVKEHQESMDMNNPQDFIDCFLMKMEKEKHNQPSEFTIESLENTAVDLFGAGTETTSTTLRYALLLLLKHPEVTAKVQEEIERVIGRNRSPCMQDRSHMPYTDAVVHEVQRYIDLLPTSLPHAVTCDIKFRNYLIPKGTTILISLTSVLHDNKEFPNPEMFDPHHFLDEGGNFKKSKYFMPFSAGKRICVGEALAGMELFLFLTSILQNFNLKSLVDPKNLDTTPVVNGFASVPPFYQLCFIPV
T2 sequence (Q13547 whole entry): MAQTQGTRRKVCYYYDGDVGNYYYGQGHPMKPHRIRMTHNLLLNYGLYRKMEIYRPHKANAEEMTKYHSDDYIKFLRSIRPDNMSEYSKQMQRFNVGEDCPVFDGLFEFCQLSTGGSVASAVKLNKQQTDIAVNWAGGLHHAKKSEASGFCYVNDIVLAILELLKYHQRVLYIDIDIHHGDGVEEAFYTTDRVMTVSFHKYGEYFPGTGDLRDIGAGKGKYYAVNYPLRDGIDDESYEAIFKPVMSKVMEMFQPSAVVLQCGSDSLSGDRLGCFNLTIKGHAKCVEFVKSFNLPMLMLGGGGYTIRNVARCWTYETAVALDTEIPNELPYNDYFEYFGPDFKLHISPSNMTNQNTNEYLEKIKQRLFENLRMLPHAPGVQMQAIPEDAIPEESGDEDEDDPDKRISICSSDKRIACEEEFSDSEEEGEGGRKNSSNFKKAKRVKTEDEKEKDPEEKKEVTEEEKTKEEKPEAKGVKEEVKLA
Chain of Poly [ADP-ribose] polymerase 1 (Homo sapiens) (P09874 whole entry): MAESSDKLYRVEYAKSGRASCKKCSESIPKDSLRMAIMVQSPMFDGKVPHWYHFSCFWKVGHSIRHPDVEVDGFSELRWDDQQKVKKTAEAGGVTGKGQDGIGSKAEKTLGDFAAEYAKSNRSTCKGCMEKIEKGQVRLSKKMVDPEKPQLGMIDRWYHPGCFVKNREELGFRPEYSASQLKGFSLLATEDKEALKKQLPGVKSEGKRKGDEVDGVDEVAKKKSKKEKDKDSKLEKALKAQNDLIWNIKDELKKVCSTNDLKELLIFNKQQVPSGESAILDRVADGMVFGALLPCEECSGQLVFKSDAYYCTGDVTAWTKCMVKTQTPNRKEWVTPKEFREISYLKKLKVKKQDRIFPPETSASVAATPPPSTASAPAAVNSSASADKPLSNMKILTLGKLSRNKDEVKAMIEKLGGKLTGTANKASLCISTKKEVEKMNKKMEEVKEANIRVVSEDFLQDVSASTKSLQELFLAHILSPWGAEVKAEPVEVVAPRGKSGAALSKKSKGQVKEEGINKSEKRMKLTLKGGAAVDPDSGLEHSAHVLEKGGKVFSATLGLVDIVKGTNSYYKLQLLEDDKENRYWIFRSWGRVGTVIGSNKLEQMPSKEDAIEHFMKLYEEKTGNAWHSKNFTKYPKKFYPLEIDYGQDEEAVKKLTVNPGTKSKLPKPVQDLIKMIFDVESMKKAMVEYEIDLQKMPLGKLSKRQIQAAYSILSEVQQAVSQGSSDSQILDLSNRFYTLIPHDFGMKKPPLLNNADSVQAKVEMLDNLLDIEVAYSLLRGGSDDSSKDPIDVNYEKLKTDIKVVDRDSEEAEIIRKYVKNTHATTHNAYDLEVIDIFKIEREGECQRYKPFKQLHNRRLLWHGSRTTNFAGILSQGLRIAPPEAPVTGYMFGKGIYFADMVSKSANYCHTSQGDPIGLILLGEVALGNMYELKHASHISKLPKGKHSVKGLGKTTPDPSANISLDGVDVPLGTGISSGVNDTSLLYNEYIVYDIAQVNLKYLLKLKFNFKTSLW
Chain of Cytochrome P450 2C19 (P33261 whole entry): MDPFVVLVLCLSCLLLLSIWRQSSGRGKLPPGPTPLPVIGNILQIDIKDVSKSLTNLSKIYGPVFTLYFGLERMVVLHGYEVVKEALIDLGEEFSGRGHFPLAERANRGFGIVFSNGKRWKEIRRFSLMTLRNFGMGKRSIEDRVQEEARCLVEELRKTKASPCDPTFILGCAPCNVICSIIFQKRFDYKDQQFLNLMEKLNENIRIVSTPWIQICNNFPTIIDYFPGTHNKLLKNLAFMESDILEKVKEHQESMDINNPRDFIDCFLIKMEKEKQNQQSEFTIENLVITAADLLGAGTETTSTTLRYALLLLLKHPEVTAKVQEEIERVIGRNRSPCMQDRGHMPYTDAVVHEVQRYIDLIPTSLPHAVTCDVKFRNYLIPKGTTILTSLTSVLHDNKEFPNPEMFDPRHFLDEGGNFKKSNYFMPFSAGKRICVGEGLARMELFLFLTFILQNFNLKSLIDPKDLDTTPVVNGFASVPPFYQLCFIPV
Chain of Cytochrome P450 2D6 (P10635 whole entry): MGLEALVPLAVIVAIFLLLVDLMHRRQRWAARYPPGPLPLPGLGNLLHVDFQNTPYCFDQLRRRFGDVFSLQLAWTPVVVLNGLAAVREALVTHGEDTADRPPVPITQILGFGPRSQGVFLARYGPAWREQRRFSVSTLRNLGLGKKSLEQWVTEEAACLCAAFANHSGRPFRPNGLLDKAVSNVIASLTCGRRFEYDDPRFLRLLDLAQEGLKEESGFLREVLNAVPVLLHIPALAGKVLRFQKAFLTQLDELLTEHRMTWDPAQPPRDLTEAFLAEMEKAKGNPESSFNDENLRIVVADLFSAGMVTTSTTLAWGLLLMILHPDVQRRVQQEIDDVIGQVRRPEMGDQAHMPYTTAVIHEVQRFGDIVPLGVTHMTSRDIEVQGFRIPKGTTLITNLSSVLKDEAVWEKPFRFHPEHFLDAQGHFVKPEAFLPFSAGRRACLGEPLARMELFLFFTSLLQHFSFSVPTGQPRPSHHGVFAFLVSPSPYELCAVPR
Chain of Cytochrome P450 1A2 (P05177 whole entry): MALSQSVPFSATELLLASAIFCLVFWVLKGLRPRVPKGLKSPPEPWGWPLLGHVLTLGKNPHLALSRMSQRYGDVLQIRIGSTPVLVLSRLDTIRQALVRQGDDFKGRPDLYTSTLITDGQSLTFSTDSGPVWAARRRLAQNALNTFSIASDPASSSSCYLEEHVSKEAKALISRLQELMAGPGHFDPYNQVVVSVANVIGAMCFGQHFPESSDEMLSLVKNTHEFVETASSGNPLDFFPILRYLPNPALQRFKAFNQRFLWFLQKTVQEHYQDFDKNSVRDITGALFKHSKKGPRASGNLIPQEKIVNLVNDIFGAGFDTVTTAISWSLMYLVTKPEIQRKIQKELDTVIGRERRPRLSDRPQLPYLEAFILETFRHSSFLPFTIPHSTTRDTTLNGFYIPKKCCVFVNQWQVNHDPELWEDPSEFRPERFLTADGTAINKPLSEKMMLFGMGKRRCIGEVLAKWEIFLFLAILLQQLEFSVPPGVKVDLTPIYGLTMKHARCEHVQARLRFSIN

For `CCc1nc2c(-c3ccc(C(=O)NO)cc3)cccc2c(=O)n1CCc1ccccc1`, the inhibition [1] was “inactive”, the inhibition [2] was “inactive” and the inhibition [3] was 50%. The inhibition [4] was “inactive”, the inhibition [5] was 50% and the inhibition [6] was “inactive”.

In the case of `Cc1nc2cc(/C=C/C(=O)NO)ccc2c(=O)n1CCc1ccccc1`, the IC50 [7] is reported as > 50 µM, the inhibition [8] is reported as “Active” and the inhibition [9] is reported as “Active”. For the same molecule, the Activity [10] was “Active”, the Activity [11] was “Dose-dependent effect” and the EC50 [12] was 6.8 µM. The EC50 [13] was 9.2 µM, the EC50 [14] was 6.5 µM and the Activity [15] was “Active”. The EC50 [16] was 7.3 µM, the Activity [17] was “Active” and the IC50 [18] was 4.08 µM. The IC50 [19] was 0.029 µM, the IC50 [20] was 1.75 µM and the IC50 [21] was 1.88 µM. For the same molecule, the IC50 [22] was 6.45 µM, the IC50 [23] was > 10 µM and the Activity [24] was “Non-toxic”. The Activity [25] was “Non-toxic”, the Activity [26] was “Non-toxic” and the IC50 [27] was > 10 µM. For the same molecule, the IC50 [28] was > 10 µM, the IC50 [29] was 9.1 µM and the IC50 [30] was 6.5 µM. For the same molecule, the inhibition [31] was “inactive”, the Activity [32] was “tde” and the Activity [33] was “Active”.

In the case of `CCc1nc2c(Cc3ccc(C(=O)NO)cc3)cccc2c(=O)n1CCc1ccccc1`, the inhibition [34] is reported as “Dose-dependent effect”, the Activity [11] is reported as “Dose-dependent effect” and the EC50 [12] is reported as 8.3 µM. For the same molecule, the EC50 [13] was 8.1 µM, the EC50 [14] was 6.7 µM and the Activity [15] was “Active”. The EC50 [16] was 6.2 µM, the Activity [17] was “Active” and the IC50 [18] was 37.1 µM. The IC50 [19] was 0.079 µM, the IC50 [20] was 0.282 µM and the IC50 [22] was > 10 µM. The IC50 [23] was 3.3 µM, the Activity [24] was “Non-toxic” and the Activity [25] was “Non-toxic”. For the same molecule, the Activity [26] was “Non-toxic”, the IC50 [27] was > 10 µM and the IC50 [28] was > 10 µM. The IC50 [29] was 2.1 µM, the IC50 [30] was 0.1 µM and the inhibition [31] was “inactive”.
